target: T1, ROCK2 (Homo sapiens (Human), UniProt O75116); assay: not given
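Further: rho kinase enzyme reaction halted with EDTA, phospho- and non-phospho peptide separated for read-out, kinase activity inhibition derived across a dose-response series, DMSO under 2%.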

T1 sequence (O75116 whole entry, species assumed): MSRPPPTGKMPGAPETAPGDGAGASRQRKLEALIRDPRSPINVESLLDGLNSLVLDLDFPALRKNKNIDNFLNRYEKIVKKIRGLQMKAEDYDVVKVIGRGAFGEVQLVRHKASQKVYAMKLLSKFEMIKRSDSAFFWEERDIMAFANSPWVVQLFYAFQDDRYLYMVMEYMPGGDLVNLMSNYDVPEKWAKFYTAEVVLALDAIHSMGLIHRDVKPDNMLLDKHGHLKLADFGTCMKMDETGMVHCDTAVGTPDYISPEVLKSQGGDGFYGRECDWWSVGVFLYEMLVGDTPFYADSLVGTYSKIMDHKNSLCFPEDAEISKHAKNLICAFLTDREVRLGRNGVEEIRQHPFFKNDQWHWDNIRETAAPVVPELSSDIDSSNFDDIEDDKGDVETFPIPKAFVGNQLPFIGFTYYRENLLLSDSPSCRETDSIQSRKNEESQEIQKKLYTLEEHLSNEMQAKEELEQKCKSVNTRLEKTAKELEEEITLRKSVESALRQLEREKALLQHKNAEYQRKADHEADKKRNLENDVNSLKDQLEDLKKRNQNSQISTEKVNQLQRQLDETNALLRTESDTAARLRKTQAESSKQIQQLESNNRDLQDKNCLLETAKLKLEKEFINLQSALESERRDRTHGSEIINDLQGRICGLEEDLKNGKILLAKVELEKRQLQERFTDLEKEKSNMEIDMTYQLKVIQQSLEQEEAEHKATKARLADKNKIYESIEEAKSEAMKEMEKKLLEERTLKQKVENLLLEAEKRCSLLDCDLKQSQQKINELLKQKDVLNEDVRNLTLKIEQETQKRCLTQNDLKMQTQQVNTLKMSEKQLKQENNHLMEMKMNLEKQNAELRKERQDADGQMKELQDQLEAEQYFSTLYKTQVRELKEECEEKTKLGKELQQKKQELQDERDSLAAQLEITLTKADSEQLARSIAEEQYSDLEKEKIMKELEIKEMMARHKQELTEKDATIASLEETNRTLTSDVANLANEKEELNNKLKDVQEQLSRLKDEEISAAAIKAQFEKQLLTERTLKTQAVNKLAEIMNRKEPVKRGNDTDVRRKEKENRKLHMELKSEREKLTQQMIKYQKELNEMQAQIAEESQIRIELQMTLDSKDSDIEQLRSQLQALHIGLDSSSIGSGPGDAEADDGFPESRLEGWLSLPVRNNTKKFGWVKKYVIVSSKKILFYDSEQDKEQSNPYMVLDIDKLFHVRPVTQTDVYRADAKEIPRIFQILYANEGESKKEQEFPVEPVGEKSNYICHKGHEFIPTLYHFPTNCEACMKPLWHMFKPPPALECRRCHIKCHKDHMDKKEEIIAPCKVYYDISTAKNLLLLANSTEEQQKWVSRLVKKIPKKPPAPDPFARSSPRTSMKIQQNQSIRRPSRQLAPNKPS

With COc1ccc(F)c(NC2CCN(c3ccc(-c4cn[nH]c4)cc3)C2=O)c1 (single isomer, unassigned) [Example 240, 1-(4-(1H-pyrazol-4-yl)phenyl)-3-((2-fluoro-5-methoxyphenyl)amino)pyrrolidin-2-one] as the molecule, how does the IC50 read?
Its IC50 is 10 to 100 nM.

COc1cc(NC2CCN(c3ccc(-c4cn[nH]c4)cc3)C2=O)cc(OC)c1 (single isomer, unassigned) [Example 22, 1-(4-(1H-pyrazol-4-yl)phenyl)-3-((3,5-dimethoxyphenyl)amino)pyrrolidin-2-one] was tested. Which IC50 did it give?
Its IC50 is 100 to 2200 nM.

Which IC50 does the source give for CCc1cc(N2CCC(Nc3ccc(F)c(OC)c3)C2=O)ccc1-c1cn[nH]c1 (single isomer, unassigned) [Example 242, 1-(3-ethyl-4-(1H-pyrazol-4-yl)phenyl)-3-((4-fluoro-3-methoxyphenyl)amino) pyrrolidin-2-one] here?
Its IC50 is 10 to 100 nM.

Which IC50 does the source give for O=C1C(Nc2ccc3c(c2)OC(F)(F)O3)CCN1c1ccc(-c2cn[nH]c2)cc1 (single isomer, unassigned) [Example 54, 1-(4-(1H-pyrazol-4-yl)phenyl)-3-((2,2-difluorobenzo[d][1,3]dioxol-5-yl)amino)pyrrolidin-2-one] here?
The IC50 was 100 to 2200 nM.

How did the IC50 turn out when CNc1nc(N2CCC(Nc3cccc(OC)c3)C2=O)ccc1-c1cn[nH]c1 (single isomer, unassigned) [Example 254, 3-((3-methoxyphenyl)amino)-1-(6-(methylamino)-5-(1H-pyrazol-4-yl)pyridin-2-yl)pyrrolidin-2-one] was run?
Its IC50 is 10 to 100 nM.

With COc1ccc(NC2CCN(c3ccc(-c4cn[nH]c4)cc3)C2=O)cc1F (single isomer, unassigned) [Example 14, 1-(4-(1H-pyrazol-4-yl)phenyl)-3-((3-fluoro-4-methoxyphenyl)amino)pyrrolidin-2-one] as the molecule, how does the IC50 read?
Its IC50 is 100 to 2200 nM.

With COc1ccc(NC2CCN(c3ccc(-c4cn[nH]c4)c(OC)c3)C2=O)c(F)c1 (single isomer, unassigned) [Example 153, 3-((2-fluoro-4-methoxyphenyl)amino)-1-(3-methoxy-4-(1H-pyrazol-4-yl)phenyl) pyrrolidin-2-one] as the molecule, how does the IC50 read?
Its IC50 is 100 to 2200 nM.

COc1cccc(NC2CCN(c3ccc(-c4cn[nH]c4)cc3F)C2=O)c1 (single isomer, unassigned) [Example 329, 1-(2-fluoro-4-(1H-pyrazol-4-yl)phenyl)-3-((3-methoxyphenyl)amino)pyrrolidin-2-one] was tested. Which IC50 did it give?
The IC50 was 10 to 100 nM.

How did the IC50 turn out when COc1cc(NC2CCN(c3ccc(-c4cn[nH]c4)c(C)n3)C2=O)ccc1F (single isomer, unassigned) [Example 195, 3-((4-fluoro-3-methoxyphenyl)amino)-1-(6-methyl-5-(1H-pyrazol-4-yl)pyridin-2-yl)pyrrolidin-2-one] was run?
Its IC50 is 10 to 100 nM.

How did the IC50 turn out when COc1cc(F)ccc1NC1CCN(c2ccc(-c3cn[nH]c3)c(OC)c2)C1=O (single isomer, unassigned) [Example 144, 3-((4-fluoro-2-methoxyphenyl)amino)-1-(3-methoxy-4-(1H-pyrazol-4-yl)phenyl) pyrrolidin-2-one] was run?
Its IC50 is 100 to 2200 nM.

For COc1cc(NC2CCN(c3ccc(-c4cn[nH]c4)cc3Cl)C2=O)ccc1F (single isomer, unassigned) [Example 163, 1-(2-chloro-4-(1H-pyrazol-4-yl)phenyl)-3-((4-fluoro-3-methoxyphenyl)amino) pyrrolidin-2-one], which IC50 is on record?
The IC50 was 100 to 2200 nM.

Which IC50 does the source give for COc1cccc(NC2CCN(c3ncc(-c4cn[nH]c4)cc3F)C2=O)c1 (single isomer, unassigned) [Example 358, 1-(3-fluoro-5-(1H-pyrazol-4-yl)pyridin-2-yl)-3-((3-methoxyphenyl)amino) pyrrolidin-2-one] here?
The IC50 was 100 to 2200 nM.

For COc1cccc(NC2CCN(c3ccc(-c4cn[nH]c4)cc3)C2=O)c1C (single isomer, unassigned) [Example 326, 1-(4-(1H-pyrazol-4-yl)phenyl)-3-((3-methoxy-2-methylphenyl)amino) pyrrolidin-2-one], which IC50 is on record?
The IC50 was 10 to 100 nM.

With Cc1nc(N2CCC(Nc3cccc(OCC4CC4)c3)C2=O)ccc1-c1cn[nH]c1 (single isomer, unassigned) [Example 191, 3-((3-(cyclopropylmethoxy)phenyl)amino)-1-(6-methyl-5-(1H-pyrazol-4-yl)pyridin-2-yl)pyrrolidin-2-one] as the molecule, how does the IC50 read?
The IC50 was 10 to 100 nM.

For COc1ccc(NC2CCN(c3ccc(-c4cn[nH]c4)cc3F)C2=O)cc1F (single isomer, unassigned) [Example 345, 1-(2-fluoro-4-(1H-pyrazol-4-yl)phenyl)-3-((3-fluoro-4-methoxyphenyl)amino) pyrrolidin-2-one], which IC50 is on record?
Its IC50 is 100 to 2200 nM.

With COc1cc(F)cc(NC2CCN(c3ccc(-c4cn[nH]c4)c(OC)c3)C2=O)c1 (single isomer, unassigned) [Example 138, 3-((3-fluoro-5-methoxyphenyl)amino)-1-(3-methoxy-4-(1H-pyrazol-4-yl)phenyl) pyrrolidin-2-one] as the molecule, how does the IC50 read?
The IC50 was less than 10 nM.

target: T1, ROCK2; assay: biochemical

For COc1cc(NC2CCN(c3ccc(-c4cn[nH]c4)c(C#N)c3)C2=O)ccc1F (single isomer, unassigned) [Example 379, 5-(3-((4-fluoro-3-methoxyphenyl)amino)-2-oxopyrrolidin-1-yl)-2-(1H-pyrazol-4-yl)benzonitrile], which IC50 is on record?
Its IC50 is 100 to 2200 nM.

How did the IC50 turn out when COc1nc(N2CCC(Nc3cccc(S(=O)(=O)N4CCOCC4)c3)C2=O)ccc1-c1cn[nH]c1 (racemic) [Example 264, 1-(6-methoxy-5-(1H-pyrazol-4-yl)pyridin-2-yl)-3-((3-(morpholinosulfonyl)phenyl)amino)pyrrolidin-2-one] was run?
The IC50 was 10 to 100 nM.

With CCc1cc(N2CCC(Nc3cccc(OC)c3)C2=O)ccc1-c1cn[nH]c1 (single isomer, unassigned) [Example 243, 1-(3-ethyl-4-(1H-pyrazol-4-yl)phenyl)-3-((3-methoxyphenyl)amino)pyrrolidin-2-one] as the molecule, how does the IC50 read?
The IC50 was 10 to 100 nM.

CCOc1cc(N2CCC(Nc3cc(OC)ccc3F)C2=O)ccc1-c1cn[nH]c1 (single isomer, unassigned) [Example 40, 1-(3-ethoxy-4-(1H-pyrazol-4-yl)phenyl)-3-((2-fluoro-5-methoxyphenyl)amino)pyrrolidin-2-one] was tested. Which IC50 did it give?
Its IC50 is 100 to 2200 nM.

With COc1c(F)cccc1NC1CCN(c2ccc(-c3cn[nH]c3)c(C#N)c2)C1=O (single isomer, unassigned) [Example 376, 5-(3-((3-fluoro-2-methoxyphenyl)amino)-2-oxopyrrolidin-1-yl)-2-(1H-pyrazol-4-yl)benzonitrile] as the molecule, how does the IC50 read?
Its IC50 is 100 to 2200 nM.

For COCc1cc(N2CCC(Nc3cc(F)cc(OC)c3)C2=O)ccc1-c1cn[nH]c1 (single isomer, unassigned) [Example 186, 3-((3-fluoro-5-methoxyphenyl)amino)-1-(3-(methoxymethyl)-4-(1H-pyrazol-4-yl)phenyl)pyrrolidin-2-one], which IC50 is on record?
Its IC50 is 10 to 100 nM.

For COCc1cc(N2CCC(Nc3cc(F)cc(OC)c3)C2=O)ccc1-c1cn[nH]c1 (single isomer, unassigned) [Example 185, 3-((3-fluoro-5-methoxyphenyl)amino)-1-(3-(methoxymethyl)-4-(1H-pyrazol-4-yl)phenyl)pyrrolidin-2-one], which IC50 is on record?
Its IC50 is 100 to 2200 nM.

Which IC50 does the source give for COc1cc(NC2CCN(c3ccc(-c4cn[nH]c4)c(Cl)c3)C2=O)ccc1F (single isomer, unassigned) [Example 161, 1-(3-chloro-4-(1H-pyrazol-4-yl)phenyl)-3-((4-fluoro-3-methoxyphenyl)amino) pyrrolidin-2-one] here?
The IC50 was less than 10 nM.
